“Also recorded” adds a separate entry of the source.
Legend:
rat hippocampal cultures = test: Neurite outgrowth assay (MAP2-FITC immunofluorescence), hippocampal cultures; format: cell-based
Text: (§1) Dissociated hippocampal and cortical cell cultures were established from embryonic day 18 rat fetuses as previously described (Mattson et al., 1994). Briefly, fetuses were removed via cesarean section from pregnant moms (Sprague-Dawley) anesthetized with halothane according to the AVMA Panel on Euthanasia. Pups were decapitated and the brains were removed and placed in HEPES-buffered Hank's Balanced Salt solution (HBSS; Gibco). The hippocampi and cortices were dissected out and pooled according to tissue-type. Tissue was trypsinized for 15 min (1 mg/ml trypsin-HBSS; Worthington), rinsed with fresh HBSS, incubated in trypsin inhibitor (1 mg/ml; Sigma) for 5 min, rinsed again with fresh HBSS and then triturated in 1 ml fresh HBSS with a fire-polished glass pipette. Dissociated cells were seeded at 30,000 cells/well onto poly-D-lysine coated 96-well plates (Collaborative BioScience). Each well contained 100 μl of Eagle's Minimal Essential Media (MEM; Gibco) supplemented with 26 mM NaHCO3 (Sigma), 56 mM glucose (Sigma), 15 mM KCl (Sigma), 1 mM sodium pyruvate (Sigma), 1.1 mM L-glutamine (Sigma), 10% (v/v) heat-inactivated fetal bovine serum (Hyclone), and 0.001% gentamicin sulfate (Sigma) (pH 7.4). Cells were allowed to attach for 24 h in a humidified 37° C. 5% CO2 incubator before experimental treatment. The culture media was aspirated and exchanged with fresh media every three days.
(§2) Twenty-four hours after plating, cultures were treated with vehicle (PBS+0.1% BSA), 100 ng of various growth factors (brain derived neurotrophic factor (BDNF; Promega), glial-derived neurotrophic factor (GDNF; Promega), nerve growth factor (NGF; Boehringer Mannheim), basic fibroblast growth factor (bFGF; Boehringer Mannheim), insulin-like growth factor-1 (IGF-1; Boehringer Mannheim), neurotrophin-3 (NT3; Calbiochem), neurotrophin-4 (NT4; Calbiochem), ciliary neurotrophic factor (CNTF; Calbiochem), epidermal growth factor (EGF; Calbiochem), vascular endothelial growth factor (VEGF; Calbiochem)), or rhEPO (prepared same as above; 10 fM-10 nM)). Each treatment condition was run in quadruplicate or octuplicate. On the third day in culture, the media was aspirated off and replaced with fresh media and test compound. At one week in culture, the cells were fixed with 10% phosphate-buffered formalin for 15 min, then rinsed with DPBS (Sigma) and placed in blocking serum for 30 min (horse serum; 1:50 dilution in DPBS; Vector Labs). Cultures were rinsed again with DPBS and then incubated in primary antibody for 2 hr (microtubule-associated protein-2 (MAP-2) is a selective marker for dendritic processes; anti-mouse monoclonal (Chemicon); 1:1000 dilution of MAP-2 in antibody diluent (Zymed)). Negative control wells were incubated in antibody diluent alone. Background signal was determined by blank wells (cell-free) incubated with or without antibody. Cultures were rinsed again with DPBS and then placed in fluorescein for 1 hr (FITC; anti-mouse IgG; rat adsorbed; 1:50 dilution in DPBS; Vector Labs). Cultures were rinsed a final time with DPBS and then the plates were read on a Cytofluor 4000 fluorescence plate reader. Neurite outgrowth was expressed as percent change from control (vehicle; mean fluorescence±SD).
(§3) Dissociated hippocampal and cortical cell cultures were established from embryonic day 18 rat fetuses as previously described (Mattson et al., 1994). Briefly, fetuses were removed via cesarean section from pregnant moms (Sprague-Dawley) anesthetized with halothane according to the AVMA Panel on Euthanasia. Pups were decapitated and the brains were removed and placed in HEPES-buffered Hank's Balanced Salt solution (HBSS; Gibco). The hippocampi and cortices were dissected out and pooled according to tissue-type. […]

[1] = system: rat cerebral cortical cultures; test: Neurite outgrowth assay (MAP2-FITC immunofluorescence), cortical cultures; format: cell-based
Text: as §1, §2, §3

[2] = cited from earlier work
[3] = system: rat cerebral cortical neurons; test: Glutamate toxicity assay in primary cortical cultures; format: cell-based
Text: as §1
Cortical cells were seeded at 200,000 cells/dish onto polyethylenimine-coated 35 mm culture dishes. Each dish contained 1.5 ml MEM supplemented as described above. On the seventh day in culture, four fields per pre-marked dish were visualized with a Nikon Diaphot inverted microscope (10×magnification) and photographed prior to experimental treatment. […] Cell survival was measured by counting viable cells in each field pre- and post-experimental treatment. […] Data were expressed as percent of control (vehicle; mean±SD).

PC-12 cells = test: Glutamate toxicity in PC-12 cells (trypan blue exclusion); format: cell-based, rat; settings: for protection against glutamate-induced cell death (in words): pre-treatment 24 hr, 200 μM glutamate
Experimental: PC-12 cells (from a rat Pheochromocytoma) were cultured on poly-D-Lysine coated tissue culture plastic in DMEM containing 10% FBS and 5% Horse serum. To induce the neuronal phenotype in PC-12 cells, serum was removed and the cells were treated with NGF (50 ng/ml). Cells were grown for 7 days in the presence of the NGF then used for experiments. PC-12 cells were cultured as described above. 24 hr prior to insult, cells were treated with rhEPO at concentrations ranging from 1 pm to 1 nm. On the day of the experiment, cells were exposed to 200 μM glutamate for 30 min. Cells were then washed 2 times with fresh media to remove the glutamate and cultured in fresh media containing NGF but no EPO. After 24 hr cells were assayed for viability using a trypan blue exclusion assay. […] Cells were then washed gently with PBS, then fixed with 10% formalin. Cell viability was determined by counting the total number of cells vs. the number of trypan blue positive (dead) cells.

Substance: EPO: purified, recombinant human EPO (rhEPO), formulated and distributed under the trademarks EPREX, ERYPO or PROCRIT
- overall neurite outgrowth response, hippocampal versus cortical cultures (rat hippocampal cultures; comparison of hippocampal and cortical cultures): larger outgrowth response in the hippocampal cultures
- neurite outgrowth (in words) (rat hippocampal cultures; hippocampal cultures): significant increase in neurite outgrowth; also recorded: promotes neurite outgrowth
- concentration of maximal neurite outgrowth promoting activity (rat hippocampal cultures; hippocampal cultures, concentration dependent): maximal activity observed at pM levels
- neurite outgrowth response over control (rat hippocampal cultures; hippocampal cultures, rhEPO 10 fM-10 nM, one week in culture): 12–44%
- outgrowth promoting activity compared to known growth factors (rat hippocampal cultures; hippocampal cultures, growth factors 100 ng): superior to several growth factors including BDNF, NGF and VEGF
- neurite outgrowth (in words) [1]: significant increase in neurite outgrowth; also recorded: promotes neurite outgrowth
- concentration of maximal neurite outgrowth promoting activity ([1]; concentration dependent): maximal activity observed at pM levels
- ability to increase neurite outgrowth compared to known growth factors ([1]; growth factors 100 ng): greater than or equal to that of known growth factors; also recorded: superior in inducing neurite outgrowth relative to the majority of known growth factors
- neurite outgrowth response over control ([1]; rhEPO 10 fM-10 nM, one week in culture): 15–29%
- tolerability in studies conducted to date ([2]; patients): well tolerated
- antibody titers against Epoetin alfa ([2]; subjects treated for up to 2 years): No antibody titers
- concentration of greatest neuroprotective effect ([3]; cell survival greater than or equal to vehicle (no glutamate) treated cultures): greatest effects observed at pM concentrations
- neuronal survival / protection against glutamate toxicity (in words) ([3]; pretreatment 24 h prior to 100 μM glutamate): significant increase in neuronal survival; also recorded: protects rat cerebral cortical neurons against glutamate toxicity
- cell survival, maximal increase over parallel cultures treated with glutamate alone ([3]; pretreatment 24 h prior to 100 μM glutamate, counted 24 h post-glutamate): approximately 200%
- cell survival, Trypan Blue exclusion assay (PC-12 cells; 1 to 10 pm given 24 hours prior to glutamate (200 um), p<0.001): significantly increased cell survival
- peak concentration for the neuroprotective effect (PC-12 cells; glutamate toxicity): 10 pm
- neuroprotective effect at 1 nm (PC-12 cells; glutamate toxicity, 1 nm): no significant effect
- dose response curve for the neuroprotective effect (PC-12 cells; glutamate toxicity, protection decreasing above 10 pm): bi-phasic; also recorded: decreased at higher doses
- protection against glutamate-induced cell death (in words) (PC-12 cells): significant decrease in cell death
- protection against glutamate-induced cell death (in words) (PC-12 cells; listed as rhEPO): protects rat PC12 cells against glutamate-induced cell death

— patent US7259146B2, “Neuroprotective peptides” (Ortho-McNeil Pharmaceutical, Inc., priority 2000, dated 2007)
